Results from ChEMBL document CHEMBL1201862, “PubChem BioAssay data set” (2004).
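A five-concentration, 48-hour dose response in 96-well plates underlies each endpoint, interpolated linearly between surrounding concentrations. GI50 marks 50% less growth.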 Activity calls are given as the source filed them. Cut-off read from the data, not from the text of the source: active = GI50 up to about 1.1 µM and inactive = higher.

How the values were obtained:
Experiment in all cases: NCI anticancer screen, dose series, 48 h
[1] = tested on: A498
[2] = tested on: A549
[3] = tested on: BT-549
[4] = tested on: CAKI-1
[5] = tested on: DU-145
[6] = tested on: HCT-116
[7] = tested on: HCT-15
[8] = tested on: HOP-92
[9] = tested on: HT-29
[10] = tested on: IGROV-1
[11] = tested on: MOLT-4
[12] = tested on: NCI-H23
[13] = tested on: NCI/ADR-RES
[14] = tested on: OVCAR-3
[15] = tested on: OVCAR-4
[16] = tested on: OVCAR-8
[17] = tested on: SF-268
[18] = tested on: SF-295
[19] = tested on: SK-OV-3
[20] = tested on: SN12C

SMILES | GI50 [1] | GI50 [2] | GI50 [3] | GI50 [4] | GI50 [5] | GI50 [6] | GI50 [7] | GI50 [8] | GI50 [9] | GI50 [10] | GI50 [11] | GI50 [12] | GI50 [13] | GI50 [14] | GI50 [15] | GI50 [16] | GI50 [17] | GI50 [18] | GI50 [19] | GI50 [20]
O=c1[nH]cnc2c1ncn2C1SC(CO)C(O)C1O (stereo not given) | > 100 µM (inactive) | > 100 µM (inactive) | > 100 µM (inactive) | > 100 µM (inactive) | > 100 µM (inactive) | > 100 µM (inactive) | > 100 µM | > 100 µM (inactive) | > 100 µM (inactive) | > 100 µM (inactive) | > 100 µM (inactive) | > 100 µM (inactive) | > 100 µM (inactive) | > 100 µM (inactive) | > 100 µM (inactive) | > 100 µM (inactive) | > 100 µM (inactive) | > 100 µM (inactive) | > 100 µM (inactive) | > 100 µM (inactive)
CC(C)(C)OC(=O)/C=C/[C@@H](CCC(=O)/C=C/[C@H](/C=C\CCCC(=O)O)NC1(c2ccccc2)c2ccccc2-c2ccccc21)O[Si](C)(C)C(C)(C)C | 19.2 µM (inactive) | 14.3 µM (inactive) | 16.5 µM (inactive) | 17.9 µM (inactive) | 16.6 µM (inactive) | 13.6 µM (inactive) | 12.3 µM | 4.8 µM (inactive) | 14.7 µM (inactive) | 16.5 µM (inactive) | 9.16 µM (inactive) | 16.3 µM (inactive) | 10.8 µM (inactive) | 16.7 µM (inactive) | 17.1 µM (inactive) | 18.1 µM (inactive) | 17.1 µM (inactive) | 15.5 µM (inactive) | 46.6 µM (inactive) | 15.8 µM (inactive)
Nc1cc2c3c(c1)Oc1cc(N)cc4c1C3c1c(cc(N)cc1O4)O2 | 63.8 µM (inactive) | 32.5 µM (inactive) | 15.2 µM (inactive) | 14.4 µM (inactive) | 3.03 µM (inactive) | 21.7 µM (inactive) | 18.3 µM | 57.5 µM (inactive) | 25.3 µM (inactive) | 10.4 µM (inactive) | 39.6 µM (inactive) | 33 µM (inactive) | 6.32 µM (inactive) | 20.2 µM (inactive) | 56.5 µM (inactive) | 9.48 µM (inactive) | 12.5 µM (inactive) | 26.2 µM (inactive) | 46.5 µM (inactive) | 16.7 µM (inactive)
O=[As]O | > 74.6 µM (inactive) | > 100 µM (inactive) | 41.3 µM (inactive) | > 56.1 µM (inactive) | > 100 µM (inactive) | > 93.3 µM (inactive) | > 52.5 µM | > 41.6 µM (inactive) | > 66.2 µM (inactive) | 28 µM (inactive) | > 56.8 µM (inactive) | > 48.3 µM (inactive) | > 100 µM (inactive) | > 45.7 µM (inactive) | > 91.6 µM (inactive) | > 43.8 µM (inactive) | > 47.1 µM (inactive) | > 81.1 µM (inactive) | > 100 µM (inactive) | > 48.4 µM (inactive)
COc1ccc(/C=C2\CN(C)CC3=C2OC(N)=C(C#N)C3c2ccc(OC)cc2)cc1 (stereo not given) | 35.4 µM (inactive) | 23 µM (inactive) | > 100 µM (inactive) | 69.7 µM (inactive) | > 76.6 µM (inactive) | 24.3 µM (inactive) | 55.6 µM | 4.66 µM (inactive) | > 56.8 µM (inactive) | 15.9 µM (inactive) | 5.81 µM (inactive) | > 68.2 µM (inactive) | 51.9 µM (inactive) | 21.6 µM (inactive) | 21.6 µM (inactive) | 19.9 µM (inactive) | 48.6 µM (inactive) | 57.5 µM (inactive) | 5.64 µM (inactive) | 35.4 µM (inactive)
